Values after ≈ are worked out from the molar mass of the structure shown.
What was measured:
Assay type in all cases: functional
Staphylococcus aureus = experiment: Antibacterial activity against Staphylococcus aureus 209P JC1 after 20 hrs by agar dilution method; conditions: 209P JC1, 20 h
Streptococcus pneumoniae [1] = experiment: Antibacterial activity against Streptococcus pneumoniae DP1 type 1 after 20 hrs by agar dilution method; conditions: DP1 type1, 20 h
Streptococcus pneumoniae [2] = experiment: Antibacterial activity against Streptococcus pneumoniae 5 expressing constitutive ermB methylase after 20 hrs by agar dilution method; conditions: Streptococcus pneumoniae, 5, 20 h
Streptococcus pneumoniae [3] = experiment: Antibacterial activity against Streptococcus pneumoniae 6 expressing constitutive ermB methylase and mefA after 20 hrs by agar dilution method; conditions: Streptococcus pneumoniae, 6, 20 h
Streptococcus pneumoniae [4] = experiment: Antibacterial activity against Streptococcus pneumoniae 7 expressing constitutive ermB methylase after 20 hrs by agar dilution method; conditions: Streptococcus pneumoniae, 7, 20 h
Streptococcus pneumoniae [5] = experiment: Antibacterial activity against Streptococcus pneumoniae 8 expressing inducible ermB methylase after 20 hrs by agar dilution method; conditions: Streptococcus pneumoniae, 8, 20 h
Streptococcus pneumoniae [6] = experiment: Antibacterial activity against Streptococcus pneumoniae 9 expressing inducible ermB methylase after 20 hrs by agar dilution method; conditions: Streptococcus pneumoniae, 9, 20 h
Streptococcus pneumoniae [7] = experiment: Antibacterial activity against Streptococcus pneumoniae 10 expressing mefA efflux pump after 20 hrs by agar dilution method; conditions: Streptococcus pneumoniae, 10, 20 h
Streptococcus pneumoniae [8] = experiment: Antibacterial activity against Streptococcus pneumoniae 11 expressing mefA efflux pump after 20 hrs by agar dilution method; conditions: Streptococcus pneumoniae, 11, 20 h
Streptococcus pyogenes [9] = experiment: Antibacterial activity against Streptococcus pyogenes Cook after 20 hrs by agar dilution method
Streptococcus pyogenes [10] = experiment: Antibacterial activity against Streptococcus pyogenes 2 expressing constitutive ermB methylase after 20 hrs by agar dilution method; conditions: Streptococcus pyogenes, 2, 20 h
Streptococcus pyogenes [11] = experiment: Antibacterial activity against Streptococcus pyogenes 3 expressing mefA efflux pump after 20 hrs by agar dilution method; conditions: Streptococcus pyogenes, 3, 20 h
Haemophilus influenzae [12] = experiment: Antibacterial activity against Haemophilus influenzae 1 after 20 hrs by agar dilution method; conditions: Haemophilus influenzae, 1, 20 h
Haemophilus influenzae [13] = experiment: Antibacterial activity against Haemophilus influenzae 2 after 20 hrs by agar dilution method; conditions: Haemophilus influenzae, 2, 20 h
Haemophilus influenzae [14] = experiment: Antibacterial activity against Haemophilus influenzae 3 after 20 hrs by agar dilution method; conditions: Haemophilus influenzae, 3, 20 h

SMILES	MIC (Staphylococcus aureus) [µg/mL]	MIC (Streptococcus pneumoniae [1]) [µg/mL]	MIC (Streptococcus pneumoniae [2]) [µg/mL]	MIC (Streptococcus pneumoniae [3]) [µg/mL]	MIC (Streptococcus pneumoniae [4]) [µg/mL]	MIC (Streptococcus pneumoniae [5]) [µg/mL]	MIC (Streptococcus pneumoniae [6]) [µg/mL]	MIC (Streptococcus pneumoniae [7]) [µg/mL]	MIC (Streptococcus pneumoniae [8]) [µg/mL]	MIC (Streptococcus pyogenes [9]) [µg/mL]	MIC (Streptococcus pyogenes [10]) [µg/mL]	MIC (Streptococcus pyogenes [11]) [µg/mL]	MIC (Haemophilus influenzae [12]) [µg/mL]	MIC (Haemophilus influenzae [13]) [µg/mL]	MIC (Haemophilus influenzae [14]) [µg/mL]
CCCNC(=O)O[C@H]1[C@H](C)O[C@@H](O[C@H]2[C@H](N(C)C)[C@@H](O)[C@H](O[C@H]3[C@@H](CC=O)C[C@@H](C)[C@@H](O)CN(C)CCC[C@H](C/C=C/c4cnc5ccccc5c4)OC(=O)C[C@@H](OC(=O)CC)[C@@H]3OC)O[C@@H]2C)C[C@@]1(C)OC(=O)CC	0.5 (≈ 0.467 µM)	0.03 (≈ 0.028 µM)	16 (≈ 14.9 µM)	32 (≈ 29.9 µM)	16 (≈ 14.9 µM)	0.25 (≈ 0.233 µM)	0.25 (≈ 0.233 µM)	0.06 (≈ 0.056 µM)	0.06 (≈ 0.056 µM)	0.13 (≈ 0.121 µM)	64 (≈ 59.7 µM)	0.25 (≈ 0.233 µM)	8 (≈ 7.47 µM)	32 (≈ 29.9 µM)	32 (≈ 29.9 µM)
CCC(=O)O[C@@H]1CC(=O)O[C@@H](C/C=C/c2cnc3ccccc3c2)CCCN(C)C[C@H](O)[C@H](C)C[C@H](CC=O)[C@H](O[C@@H]2O[C@H](C)[C@@H](O[C@H]3C[C@@](C)(OC(=O)CC)[C@@H](OC(=O)NC(C)C)[C@H](C)O3)[C@H](N(C)C)[C@H]2O)[C@H]1OC	0.5 (≈ 0.467 µM)	0.03 (≈ 0.028 µM)	16 (≈ 14.9 µM)	16 (≈ 14.9 µM)	16 (≈ 14.9 µM)	0.25 (≈ 0.233 µM)	0.25 (≈ 0.233 µM)	0.06 (≈ 0.056 µM)	0.13 (≈ 0.121 µM)	0.13 (≈ 0.121 µM)	32 (≈ 29.9 µM)	0.25 (≈ 0.233 µM)	8 (≈ 7.47 µM)	32 (≈ 29.9 µM)	32 (≈ 29.9 µM)
CCC(=O)O[C@@H]1CC(=O)O[C@@H](C/C=C/c2cnc3ccccc3c2)CCCN(C)C[C@H](O)[C@H](C)C[C@H](CC=O)[C@H](O[C@@H]2O[C@H](C)[C@@H](O[C@H]3C[C@@](C)(OC(=O)CC)[C@@H](OC(=O)N(C)C)[C@H](C)O3)[C@H](N(C)C)[C@H]2O)[C@H]1OC	0.25 (≈ 0.236 µM)	0.03 (≈ 0.0284 µM)	32 (≈ 30.3 µM)	> 32	> 32	0.25 (≈ 0.236 µM)	0.5 (≈ 0.473 µM)	0.06 (≈ 0.0567 µM)	0.06 (≈ 0.0567 µM)	0.06 (≈ 0.0567 µM)	> 32	0.06 (≈ 0.0567 µM)	8 (≈ 7.57 µM)	32 (≈ 30.3 µM)	32 (≈ 30.3 µM)
CCNC(=O)O[C@H]1[C@H](C)O[C@@H](O[C@H]2[C@H](N(C)C)[C@@H](O)[C@H](O[C@H]3[C@@H](CC=O)C[C@@H](C)[C@@H](O)CN(C)CCC[C@H](C/C=C/c4cncc5ccccc45)OC(=O)C[C@@H](OC(=O)CC)[C@@H]3OC)O[C@@H]2C)C[C@@]1(C)OC(=O)CC	0.5 (≈ 0.473 µM)	0.015 (≈ 0.0142 µM)	8 (≈ 7.57 µM)	8 (≈ 7.57 µM)	8 (≈ 7.57 µM)	0.13 (≈ 0.123 µM)	0.25 (≈ 0.236 µM)	0.03 (≈ 0.0284 µM)	0.03 (≈ 0.0284 µM)	0.06 (≈ 0.0567 µM)	128 (≈ 121 µM)	0.25 (≈ 0.236 µM)	8 (≈ 7.57 µM)	16 (≈ 15.1 µM)	16 (≈ 15.1 µM)

More lines, in order of falling MIC (Staphylococcus aureus), values ahead:

MIC (Staphylococcus aureus) [µg/mL]	MIC (Streptococcus pneumoniae [1]) [µg/mL]	MIC (Streptococcus pneumoniae [2]) [µg/mL]	MIC (Streptococcus pneumoniae [3]) [µg/mL]	MIC (Streptococcus pneumoniae [4]) [µg/mL]	MIC (Streptococcus pneumoniae [5]) [µg/mL]	MIC (Streptococcus pneumoniae [6]) [µg/mL]	MIC (Streptococcus pneumoniae [7]) [µg/mL]	MIC (Streptococcus pneumoniae [8]) [µg/mL]	MIC (Streptococcus pyogenes [9]) [µg/mL]	MIC (Streptococcus pyogenes [10]) [µg/mL]	MIC (Streptococcus pyogenes [11]) [µg/mL]	MIC (Haemophilus influenzae [12]) [µg/mL]	MIC (Haemophilus influenzae [13]) [µg/mL]	MIC (Haemophilus influenzae [14]) [µg/mL]	SMILES
0.5 (≈ 0.466 µM)	0.015 (≈ 0.014 µM)	> 32	32 (≈ 29.8 µM)	32 (≈ 29.8 µM)	0.25 (≈ 0.233 µM)	0.5 (≈ 0.466 µM)	0.015 (≈ 0.014 µM)	0.015 (≈ 0.014 µM)	0.06 (≈ 0.0559 µM)	> 32	0.13 (≈ 0.121 µM)	4 (≈ 3.73 µM)	16 (≈ 14.9 µM)	16 (≈ 14.9 µM)	CCC(=O)O[C@@H]1CC(=O)O[C@@H](C/C=C/c2cnc3ccccc3c2)CCCN(C)C[C@H](O)[C@H](C)C[C@H](CC=O)[C@H](O[C@@H]2O[C@H](C)[C@@H](O[C@H]3C[C@@](C)(OC(=O)CC)[C@@H](OC(=O)NCCO)[C@H](C)O3)[C@H](N(C)C)[C@H]2O)[C@H]1OC
0.5 (≈ 0.473 µM)	0.015 (≈ 0.0142 µM)	64 (≈ 60.5 µM)	64 (≈ 60.5 µM)	64 (≈ 60.5 µM)	0.5 (≈ 0.473 µM)	0.5 (≈ 0.473 µM)	0.03 (≈ 0.0284 µM)	0.03 (≈ 0.0284 µM)	0.06 (≈ 0.0567 µM)	> 128	0.25 (≈ 0.236 µM)	8 (≈ 7.57 µM)	32 (≈ 30.3 µM)	16 (≈ 15.1 µM)	CCNC(=O)O[C@H]1[C@H](C)O[C@@H](O[C@H]2[C@H](N(C)C)[C@@H](O)[C@H](O[C@H]3[C@@H](CC=O)C[C@@H](C)[C@@H](O)CN(C)CCC[C@H](C/C=C/c4ccnc5ccccc45)OC(=O)C[C@@H](OC(=O)CC)[C@@H]3OC)O[C@@H]2C)C[C@@]1(C)OC(=O)CC

From ChEMBL document CHEMBL1156987, “Novel azalides derived from 16-membered macrolides. III. Azalides modified at the C-15 and 4'' positions: Improved antibacterial activities” (Bioorg Med Chem, 2010)
